Experimental data published in US20050143453A1, “Selective preventing and therapeutic agents for progressive lesion after organic damage” (priority 2000, published 2005).
Where two headings read alike, the source gives them in different places.

How the values were obtained:
[1] = system: obstruction-released kidney of male SD rats; test: Obstruction release model after complete obstruction of unilateral ureter for 14 days (UUO/Release, Test Example 3); assay type: in vivo, rat; parameters: key to Suppressive Effect to Glomerular Lesion / Suppressive Effect to Lesion of Tubulointerstitial Tissue: ∘: available; Δ: somewhat available; x: not available
Description: Obstruction Release Model after Complete Obstruction of Unilateral Ureter for 14 Days
Experimental models were prepared by a method devised and established by Ishibashi (Michio Ishibashi, et al.: The Japanese Journal of Nephrology, 42: 248, 2000) using male SD rats of 8-9 weeks age and about 280 g. Thus, the rat was laparotomized under anesthetization with ether and ureter was ligated with 7-0 Nylon at the height of the margin of lower pole of left kidney to close the abdomen. On the 14th day after obstruction, the obstruction was released and urinary passage was reconstructed using a cuff. Thus, after 14 days, the part of ligated obstructed ureter was resected, a polyethylene tube of 25 gages (manufactured by Nippon Sherwood) was used as a cuff and inserted into and retained at the lumen from the cut end of the lower normal ureter, then the cuff was also retained in the expanded upper ureter and each of them was ligated and fixed by 7-0 Nylon to reconstruct the urinary passage. At the same time, the right kidney at the opposite side was excised. After the release of the obstruction, body weight was measured, blood was collected on the 2nd day, 5th day and 7th day from the release to measure serum creatinine, then the rat was sacrificed under anesthetization and the left obstruction-released kidney was excised. With regard to the excised kidney, there were carried out measurement of weight of the kidney and pathological test for the kidney.
An in vivo biological test was carried out for the γ-lactone derivatives according to the present invention using the above models. With regard to the test compound, bulk powder of the test compound was dissolved in an aseptic physiological saline together with gum arabic and the final concentration of gum arabic was 5%(vol/vol). The concentration of the test compound 30 mg/ml was suspended in 5% gum arabic-saline solution. The preparation was subcutaneously injected at the dose of 30 mg/kg every day throughout the experiment. With regard to the test compound, there were used (9-1), (4-2) and (7-3) as the compounds of group I suppressing the SPFC production by allo-MLC stimulation, i.e., the compounds which selectively suppress the induction of effector macrophage in the presence of allo-MLC while there was used (3-2) as the compound of group II suppressing the SPFC production by LPS stimulation, i.e., the compounds which selectively suppress the induction of effector macrophage in the presence of LPS.
In the Table, “functional classification” of the compound means the above group I, group II and group III. “Compound” means the compound bearing each of the above-mentioned compound numbers. The fact whether glomerular lesion was suppressed was judged by the ameriolation of the lesions such as thickness of wall of Bowman's capsule, hyperplasia of mesangial cells and glomerular sclerosis. The fact whether lesion of tubulointerstitial tissue was suppressed was judged by the ameriolation of the lesions such as thickness of basement membrane of tubules, cellular infiltration and fibrosis of interstitial tissue. In the table, “control” is the result when the same test as above was carried out using 5% gum arabic only which is a solvent.
In order to further confirm whether the preventive and therapeutic effect of the γ-lactone derivatives of the present invention to the target cell damage is selective, (7-3) of the group I and (6-1) of the group II were used as test compounds and they were subcutaneously injected at the dose of 30 mg/kg every day and compared with the control group. With regard to the control group, only 5% gum arabic which is a solvent was used and the same test as above was carried out.

[2] = system: induction of effector macrophage by contact of human PBMC with mitomycin-treated human PBMC (allo-MLC); test: SPFC production by allo-MLC stimulation (Test Example 2); assay type: cell-based
[3] = Acute and chronic toxicity tests (Test Example 5); assay type: in vivo; details: subcutaneously 90 mg/kg/day for ten days
Description: Acute and Chronic Toxicity Tests
Toxicity test of benzyl 2-chloro-5-oxotetrahydrofuran-2-carboxylate represented by the formula (6-1) manufactured in Example 8 and ethyl 2-ketoglutarate represented by the formula (9-1) was carried out.

[4] = 30 mg/kg subcutaneously every day, Table 2
[5] = Experimental Model of Rat: UUO/Release

Structure (SMILES): CCOC(=O)C(=O)CCC(=O)O [(9-1), ethyl 2-ketoglutarate]
- selectivity of the suppressive effect on renal lesions ([1]; 30 mg/kg subcutaneously every day): selective suppressive effect
- Rate of Cases where Glomerular Lesion was Suppressed [1, 4]: 0% (0/4)
- Rate of Cases where tubulointerstitial Lesion was Suppressed [1, 4]: 100% (4/4)
- Serum Creatinine level (mg/dl) on the 7th Day from Release of Obstruction [1, 4]: 2.0 ± 0.2 mg/dL
- Weight of Kidney (g) on the 7th Day from Release of Obstruction [1, 4]: 3.01 ± 0.56 g
- Suppressive Effect to Glomerular Lesion [1, 5]: x
- Suppressive Effect to Lesion of Tubulointerstitial Tissue [1, 5]: ∘
- IC50 ([2]; Table 5, read-out: Inhibiting Concentration for SPEC Production by allo-MLC Stimulation (μM: IC50)): 0.01 µM
- IC50 ([2]; human PBMC with mitomycin-treated human PBMC, incubated 6 days, Table 1, read-out: SPFC Production Inhibiting Concentration by all-MLC Stimulation (μM: IC50)): 0.01 µM
- Functional Classification ([2]; selectivity allo-MLC versus LPS stimulation, Table 1): Group I
- toxicity finding [3]: an increase in weights of the liver and the spleen in a light degree
